This is an account of results in ChEMBL document CHEMBL1201862, “PubChem BioAssay data set” (2004).

Molecules are shown by their SMILES.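 Where inhibition never reached the appropriate level, the endpoint shown equals the highest concentration tested. Otherwise, values were interpolated linearly from a five-concentration, 48-hour dose response in 96-well plates. The concentration for 50% growth inhibition is given as GI50.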 The source made the active and inactive calls. No stated cut-off is given here; in the data, active = GI50 up to about 1.1 µM and inactive = higher.

Test systems include SN12C; NCI-H460; SK-MEL-5; OVCAR-5; SF-539; MDA-MB-435; OVCAR-4; HCT-15; HL-60; BT-549; NCI/ADR-RES; EKVX; CCRF-CEM; RPMI-8226; SK-OV-3; Malme-3M; HOP-62; IGROV-1; SNB-75; U-251.
Test in all cases: NCI-60 cell line screen, 48 h

With `CN1CCOC1(C)c1ccccc1` (stereo not given), the GI50 in the experiment on SN12C was > 100 µM (inactive); in the experiment on NCI-H460, > 100 µM (inactive); with SK-MEL-5 it was > 26.1 µM (inactive); with OVCAR-5, > 100 µM (inactive); in the experiment with SF-539, > 100 µM (inactive); with MDA-MB-435, > 100 µM (inactive). In addition, the GI50 in the experiment on OVCAR-4 was > 100 µM (inactive); with HCT-15 it was greater than 100000 nM; in the experiment on HL-60, > 100 µM (inactive); in the experiment with BT-549, > 100 µM (inactive); with NCI/ADR-RES, > 100 µM (inactive); with EKVX, > 100 µM (inactive). In addition, the GI50 in the experiment on CCRF-CEM, with RPMI-8226, in the experiment on SK-OV-3, in the experiment with Malme-3M, in the experiment on HOP-62 and in the experiment with IGROV-1 was > 100 µM (inactive) throughout. In addition, the GI50 in the experiment with SNB-75 and with U-251 was > 100 µM (inactive) throughout.

For `O=C1Nc2ccccc2/C1=C1/Nc2ccccc2/C1=N/OCCO`, the GI50 is 29 µM (inactive) with SN12C; 0.824 µM (active) in the experiment on NCI-H460; 0.771 µM (active) with SK-MEL-5; > 100 µM (inactive) with OVCAR-5; > 100 µM (inactive) in the experiment on SF-539; 2.47 µM (inactive) in the experiment with MDA-MB-435. The GI50 in the experiment with OVCAR-4 was > 100 µM (inactive); with HCT-15, 433 nM; in the experiment on HL-60 it was 3.87 µM (inactive); in the experiment on BT-549, 50.9 µM (inactive); in the experiment on NCI/ADR-RES, > 100 µM (inactive); with EKVX it was 0.662 µM (active). Besides, the GI50 is > 100 µM (inactive) with CCRF-CEM; > 100 µM (inactive) in the experiment on RPMI-8226; 0.299 µM (active) in the experiment with SK-OV-3; 5.53 µM (inactive) with Malme-3M; > 100 µM (inactive) with HOP-62; 0.274 µM (active) with IGROV-1. Also, the GI50 in the experiment on SNB-75 and with U-251 was > 100 µM (inactive) in each case.
